From patent publication US8859534B2, “2-carboxamide-7-piperazinyl-benzofuran derivatives” (AstraZeneca AB, priority 2009, dated 2014) come the findings set out here.

One test deals with 5-HT1A receptor (Homo sapiens (Human), UniProt P08908). Put plainly: 5-HT1A receptor competition binding assay (SPA, [3H]-8-OH-DPAT). Conditions: membranes of CHO cells expressing 5-HT1A receptors; radioligand [3H]-8-OH-DPAT 0.15-0.2 nM. The source says:
(§1) Assays that were used to measure affinity of the compounds of the present invention for 5-HT1A and 5-HT1B receptors are described in J. Recept Signal Transduct. Res. 22:483-495 (2002) and Naunyn-Schmiedeberg's Arch Pharmacol. 356:328-334 (1997) and incorporated by reference herein. These assays were be used with some modifications:
(§2) For the binding assay stably transfected chinese hamster ovary (CHO) cell lines expressing 5-HT1A receptors or 5-HT1B receptors were harvested by centrifugation at 300×g for 10 min and resuspended in 10 mM Tris-HCl, 5 mM EDTA at pH 7.4. The cells were pooled, recentrifuged and resuspended before homogenisation using a Dounce homogeniser (“type B”). Cell membranes were centrifuged at 48 000×g for 10 min and then resuspended in harvesting buffer using an Ultra-Turrax T8 (IKA Labortechnik, Germany), aliquots were stored frozen in −70° C.
Frozen membrane preparations were thawed, homogenized with an Ultra-Turrax and mixed with SPA beads (YSI coated WGA, GE Healthcare/Amersham, Buckinghamshire, UK) in assay buffer containing 50 mM Tris-Base, 4 mM MgCl2, 4 mM CaCl2 (only 5-HT1B), 1 mM EDTA, and adjusted to pH 7.4 with HCl. […] The binding assays were performed in 384-well plates in a final volume of 90 μL/well with the following additions: 9 μL binding buffer; 1 μL compound/DMSO/nonspecific; 20 μL radioligand; and 60 μL beads/membrane mixture. Non-specific binding was defined by using 10 μM WAY100635 for 5-HT1A and 10 μM Methiothepin for 5-HT1B. The assay plates were incubated for 4 hours where after the plates are counted in a Wallac 1450 Microbeta Trilux counter (PerkinElmer LifeScience, US) or similar. Data from the experiments were analyzed using a four parameter logistic equation as follows: Y=Bottom+(Top-Bottom)/1+10^(LogEC50-X)nH.

The target in another test is 5-HT1B receptor (Homo sapiens (Human), UniProt P28222). Put plainly: 5-HT1B receptor competition binding assay (SPA, [3H]-GR125743). Conditions: membranes of CHO cells expressing 5-HT1B receptors; radioligand [3H]-GR125743 0.15-0.2 nM.
5-HT1B receptor, sequence (P28222 whole entry): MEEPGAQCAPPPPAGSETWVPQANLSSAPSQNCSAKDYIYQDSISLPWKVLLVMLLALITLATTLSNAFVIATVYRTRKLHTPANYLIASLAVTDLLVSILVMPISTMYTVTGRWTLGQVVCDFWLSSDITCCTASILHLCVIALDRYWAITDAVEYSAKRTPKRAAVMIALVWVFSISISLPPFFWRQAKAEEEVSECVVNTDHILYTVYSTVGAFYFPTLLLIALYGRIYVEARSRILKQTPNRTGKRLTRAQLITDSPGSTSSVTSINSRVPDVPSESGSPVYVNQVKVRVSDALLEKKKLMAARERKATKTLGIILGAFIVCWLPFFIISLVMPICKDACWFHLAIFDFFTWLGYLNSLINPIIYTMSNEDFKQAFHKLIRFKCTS
Description: as §1, §2
Frozen membrane preparations were thawed, homogenized with an Ultra-Turrax and mixed with SPA beads (YSI coated WGA, GE Healthcare/Amersham, Buckinghamshire, UK) in assay buffer containing 50 mM Tris-Base, 4 mM MgCl2, 4 mM CaCl2 (only 5-HT1B), 1 mM EDTA, and adjusted to pH 7.4 with HCl. The beads/membrane solution, final concentration 100 pM receptors for 5-HT1A, 300 pM receptors for 5-HT1B and 0.5 mg SPA beads/well, was pre-incubated in room temperature with stirring for 30-60 min. […] Five (log interval, 10 μM to 1 nM, final concentration) or ten serial dilutions (½-log interval, 10 μM to 0.32 nM, final concentration) of compounds were prepared in DMSO from 10 mM stock solutions. The binding assays were performed in 384-well plates in a final volume of 90 μL/well with the following additions: 9 μL binding buffer; 1 μL compound/DMSO/nonspecific; 20 μL radioligand; and 60 μL beads/membrane mixture. Non-specific binding was defined by using 10 μM WAY100635 for 5-HT1A and 10 μM Methiothepin for 5-HT1B. The assay plates were incubated for 4 hours where after the plates are counted in a Wallac 1450 Microbeta Trilux counter (PerkinElmer LifeScience, US) or similar. Data from the experiments were analyzed using a four parameter logistic equation as follows: Y=Bottom+(Top-Bottom)/1+10^(LogEC50-X)nH.
• Jerning E., Rosqvist S., Mohell N. (2002) NAD-299 antagonises 5-HT-stimulated and Spiperone-inhibited [^35S]GTPγS binding in cloned 5-HT1A receptors. J Recept Signal Transduct Res 22:483-495. • Doménech T., Beleta J., Palacios J. M. (1997) Characterization of human serotonin 1D and 1B receptors using [^3H]-GR-125743, a novel radiolabelled serotonin 5HT1D/1B receptor antagonist. Naunyn-Schmiedeberg's Arch Pharmacol 356:328-334.

5-HT1A receptor, sequence (P08908 whole entry): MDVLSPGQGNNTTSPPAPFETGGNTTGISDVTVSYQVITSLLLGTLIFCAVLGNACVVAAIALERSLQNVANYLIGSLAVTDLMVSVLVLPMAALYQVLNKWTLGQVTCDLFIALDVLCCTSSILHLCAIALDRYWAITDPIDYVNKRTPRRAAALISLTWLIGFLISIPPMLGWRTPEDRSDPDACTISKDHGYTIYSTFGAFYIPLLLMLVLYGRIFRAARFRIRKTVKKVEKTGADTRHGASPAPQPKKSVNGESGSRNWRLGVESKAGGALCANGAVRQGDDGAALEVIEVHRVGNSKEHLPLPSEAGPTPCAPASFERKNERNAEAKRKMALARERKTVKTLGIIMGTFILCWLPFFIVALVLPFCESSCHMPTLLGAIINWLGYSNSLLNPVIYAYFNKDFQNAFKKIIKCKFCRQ

The Ki is a dissociation constant, usually derived from enzyme kinetics or from competition with a known ligand. As for `CN(C)C(=O)c1cc2cccc(N3CCN(CCc4ccc(F)cn4)CC3)c2o1` [Example 47, 7-(4-(2-(5-Fluoropyridin-2-yl)ethyl)piperazin-1-yl)-N,N-dimethylbenzofuran-2-carboxamide], the Ki came out at 0.22 nM on 5-HT1A receptor and 19 nM at 5-HT1B receptor.
With `CN(C)C(=O)c1cc2cc(F)cc(N3CCN(CCc4ccccn4)CC3)c2o1` [Example 50, 5-Fluoro-N,N-dimethyl-7-(4-(2-(pyridin-2-yl)ethyl)piperazin-1-yl)benzofuran-2-carboxamide], the Ki on 5-HT1A receptor came to 0.43 nM; at 5-HT1B receptor, 8.2 nM.
The like results for `CC(=O)N1CCc2cc(CCN3CCN(c4cc(F)cc5cc(C(=O)N(C)C)oc45)CC3)ccc21` [Example 51, 7-(4-(2-(1-Acetylindolin-5-yl)ethyl)piperazin-1-yl)-5-fluoro-N,N-dimethylbenzofuran-2-carboxamide] were, in that order, 0.23 nM and 5 nM.
For the molecule `COc1cc(N2CCN(CCc3ccccn3)CC2)c2oc(C(=O)N(C)C)cc2c1` [Example 52, 5-Methoxy-N,N-dimethyl-7-(4-(2-(pyridin-2-yl)ethyl)piperazin-1-yl)benzofuran-2-carboxamide], the values for the inhibition constant (Ki) on 5-HT1A receptor and at 5-HT1B receptor were 2.8 nM and 140 nM, respectively.
Turning to `CN(C)C(=O)c1cc2c(Br)ccc(N3CCN(CCc4ccccn4)CC3)c2o1` [Example 53, 4-Bromo-N,N-dimethyl-7-(4-(2-(pyridin-2-yl)ethyl)piperazin-1-yl)benzofuran-2-carboxamide], the Ki stood at 0.35 nM at 5-HT1A receptor and 11 nM on 5-HT1B receptor.
